# Measured values from patent US8748408B2, “Methods of treatment of mitochondrial disorders” (The Regents of the University of California, priority 1999, dated 2014).
# Assays:
# Type in all cases: in vivo, human
# [1] = Tegretol level in patient (Example 4); settings: both before and after starting triacetyluridine, found subtherapeutic
# [2] = tested on: child with Leigh syndrome, lactic acidemia, and renal tubular acidosis; assay: Administration of triacetyluridine to a subject having Leigh syndrome (Example 5)
# From the text: patient two was a child with Leigh syndrome, lactic acidemia, and renal tubular acidosis who suffered a hypertensive crisis and acute edema as they came out of general anesthesia for replacement of an elective percutaneous gastrostomy tube (PEG). […] They developed pneumonia as a complication of PEG and developed new Leigh syndrome lesions in the spinal cord, midbrain, and thalamus. They drifted into a coma 3 days after PEG placement. The person received emergency treatment with triacetyluridine.
# [3] = tested on: child with MARIAHS syndrome
# From the text: CMZ is a child with mitochondrial ataxia, recurrent infections, aphasia, hypouricemia/hypomyelination, and seizures ([…] syndrome), cared for […]. Symptoms indicate a primary deficiency in the enzyme dihydroorotate dehydrogenase, the rate-limiting step in de novo pyrimidine synthesis, which could lead to a functional dependence on exogenous uridine. […] treatment began with uridine. […] the treating agent was switched to triacetyluridine because it is a more easily absorbed form of uridine.
# [4] = tested on: adult with familial history of mitochondrial disease
# From the text: KL is an adult who first came to the investigator's attention after the diagnosis of their son with mitochondrial disease leading to stroke-like episodes, ataxia, and encephalopathy. Before administration of triacetyluridine, KL suffered with recurrent pyelonephritis, infection-association neutropenia, […] migraines, grand-mal seizures, neurogenic bowel and bladder requiring QID catheterization, biliary […], dysphagia and pc cough, peripheral and autonomic polyneuropathy, painful paresthesias, cardiac conduction disturbances with SVT and tachy-brady syndrome, severe orthostatic hypotension, orthopnea, and poor functional capacity with inability to climb a flight of stairs without stopping to rest, and declining cognitive performance with episodes of clouded sensorium and poor memory that would last hours to days. KL started triacetyluridine at a dose of 0.05 g/kg/d.
# [5] = tested on: child with refractory epilepsy and multiple mitochondrial DNA deletion syndrome; assay: Administration of triacetyluridine to a subject having multiple mitochondrial DNA deletion syndrome (Example 4); settings: patient
# From the text: patient one is a child with refractory epilepsy. As a 5th grader they were able to play little league baseball. […] This disorder produces multiple deleted copies of mitochondrial DNA and can lead to a number of symptoms. SK began deteriorating. They had 2 ICU admissions for crescendo epilepsy, and had 7 changes in their anticonvulsant regimen in the succeeding 4 months. They were having 8-10 grand-mal seizures every night, leaving them postictal for much of the morning. They also developed upper lip automaticity. The patient was initially administered 0.05 g/kg/day of triacetyluridine for one week, followed by 0.16 g/kg/day for 1 week, and then 0.24 g/kg/day.
# [6] = tested on: patients with mitochondrial renal tubular acidosis (RTA); assay: Treatment of patients with mitochondrial renal tubular acidosis with triacetyluridine (Example 1)
# From the text: Four patients with mitochondrial renal tubular acidosis (RTA) were studied. Mitochondrial RTAs often defy simple classification as proximal (type II) or distal (type I) tubulopathies, as these patients are often mosaics and express features of both phenotypes leading to hyperchloremic (non-anion gap) metabolic acidosis.
# Patient #1 was a person with Leigh syndrome, lactic acidemia, and complex I deficiency who required 200 mEq/day of NaHCO3 to compensate for renal losses of alkali, and maintain serum bicarbonate levels above 20 mEq/l, 1+ proteinuria, and significant aminoaciduria with hydroxyprolinuria.
# Patient #2 was a person with Leigh syndrome, and complex IV (COX) deficiency, who also required 200 mEq/day of NaHCO3.
# Patient #3 was a person with Leigh syndrome, lactic acidemia, 1+ proteinuria, and pyruvate dehydrogenase (PDH) deficiency, who required up to 210 mEq/day of NaHCO3.
# Patient #4 was a person with 3-hydroxyisobutyric aciduria, lactic acidemia, and encephalomyopathy, who required 468 mEq/day of NaHCO3.
# Blood and urine electrolytes, creatinine, pH, urinalysis, and venous blood gases were studied before and after treatment. Quantitative urine amino acids and organic acids were also obtained. Pre-enrollment doses of oral sodium bicarbonate were continued for the first 3 days of triacetyluridine treatment, then reduced weekly as tolerated to maintain serum bicarbonate above 20 mEq/1.
# Patients received triacetyluridine 2 g/m^2 PO TID.
# [7] = patient three, started at 0.05 g/kg/d
# [8] = Patient #1, triacetyluridine 2 g/m^2 PO TID
smiles,measurement,setting,value
NC(=O)N1c2ccccc2C=Cc2ccccc21 [tegretol],tegretol level,[1],4 µg/mL
"CC(=O)OC[C@H]1O[C@@H](n2ccc(=O)[nH]c2=O)[C@H](OC(C)=O)[C@@H]1OC(C)=O [triacetyluridine, 2′, 3′, 5′-tri-O-acetyl-1-β-D-uridine]",aminoaciduria,[2]; patient two,improved
same,need for supplemental bicarbonate,[2]; patient two (before: 25 mEg/kg/day),did not require any further supplemental bicarbonate
same,time to complete resolution of renal tubular acidosis,"[2]; patient two, emergency treatment with triacetyluridine",≤ 12 h
same,clinical outcome,"[2]; patient two, in coma before treatment","never awoke from their coma, and died after a 4 week terminal illness"
same,time until plasma amino acids returned to normal ranges,"[2]; patient two, while receiving continuous parenteral nutrition",≤ 2 h
same,overall condition and symptomotology (conclusion),[3]; MARIAHS syndrome patient,"dramatic improvement in the patient's condition, and a marked reduction in symptomotology"
same,toxicity,"[3]; human, in vivo","no biochemical, hematologic, or clinical toxicity"
same,truncal ataxia,"[3]; patient four, uridine, then triacetyluridine",Mild truncal ataxia persists
same,language and gait,"[3]; patient four, within 2 months of a dose increase to 0.2 g/kg/day","rapid increase in expressive language acquisition and a narrowing of their previous broad-based, ataxic gait"
same,cystic breast disease,"[4]; human, in vivo",flared slightly
same,menstrual cycle,"[4]; human, in vivo",returned to normal
same,menstrual cycles,"[4]; human, in vivo",shortened from every 4 weeks to every 2 weeks
same,I&O catheterization required,"[4]; patient three (before: QID catheterization), started at 0.05 g/kg/d",1-2 times a week
same,functional capacity,"[4]; patient three, after 6 weeks of triacetyluridine",able to walk a full mile
same,pain of biliary dyssynergia,[4]; [7],gone
same,painful paresthesias,[4]; [7],"gone, although some numbness persists"
same,seizures and migraine since starting treatment,[4]; [7],has not had a seizure or migraine
same,sensorium,[4]; [7],Her sensorium has cleared
same,tachy-brady syndrome,[4]; [7],persists
same,nocturnal seizure activity,"[5]; after increase to 0.24 g/kg/d with 0.5 g calcium pyruvate TID added, transient escalation, then after 3 days",decreased to zero
same,seizures and involuntary lip movements,"[5]; first three days, 0.05 g/kg/day",stopped completely
same,functional outcome,[5]; for several weeks,able to return to school and play little league baseball again
same,time to complete correction of RTA,"[6]; Patient #1 (Leigh syndrome, complex I deficiency), triacetyluridine 2 g/m^2 PO TID",≤ 24 h
same,serum bicarbonate maintained without any further oral bicarbonate,[6]; [8],more than 20 mEq/l
same,time to complete resolution of hydroxyprolinuria,[6]; [8],≤ 2 weeks
same,urinary bicarbonate losses,"[6]; Patient #2 (initially 99 mEq/l), after 36 hours on treatment, 2 g/m^2 PO TID",< 5 mEq/l
same,share of pre-enrollment dose of bicarbonate needed to maintain normal serum bicarbonate,"[6]; Patient #2, after 3 weeks of treatment, 2 g/m^2 PO TID",25%
same,urinary bicarbonate losses,"[6]; Patient #3 (59 mEq/l prior to therapy), after 36 hours of treatment, 2 g/m^2 PO TID",< 5 mEq/l
same,share of previous dose of bicarbonate required,"[6]; Patient #3, after 3 weeks of treatment, 2 g/m^2 PO TID",10%
same,reduction in oral bicarbonate requirement,"[6]; Patient #4, following 1 week of treatment, 2 g/m^2 PO TID",35%
same,patients in whom renal tubular acidosis was corrected or dramatically improved,"[6]; patients with mitochondrial disease, 2 g/m^2 PO TID",4 out of 4
"O=c1ccn([C@@H]2O[C@H](CO)[C@@H](O)[C@H]2O)c(=O)[nH]1 [uridine, reference compound]","follow-up brain MRI, white matter disease","[3]; patient four, after 20 months on uridine",no progression in their white matter disease
